Earlier results in publication PMC6044621 (ACS Omega, 2016).

Tested on: Cbx7
Conditions: ref 13c

Substance: UNC3866
- potency as Cbx7 inhibitor: 97 nM
